The values that follow come from patent US20250136558A1, “PYRAZINE COMPOUNDS AS IRREVERSIBLE INHIBITORS OF FLT3” (BIOMEA FUSION, INC., priority 2021, published 2025).

The subject of assay [1] is MOLM-13. Kind of assay: Proliferation inhibition (CellTiter-Glo) in MOLM-13 cells. To be noted: Homo sapiens, 96 h, MOLM-13 AML cells, heterozygous FLT3-ITD, IC50 (4 days). It is filed as cell-based. An outline of the steps: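 MOLM-13 human AML cells, heterozygous for FLT3-ITD, were grown in RPMI-1640 with 10% heat-inactivated FBS and 1% Pen-Strep. About 10,000 cells in 200 μL were seeded per well of 96-well plates. After 2 hours, compounds from DMSO stocks were dispensed at eight concentrations in duplicate, with 0.2% DMSO as the untreated control. Viability was read as CellTiter-Glo ATP luminescence, and IC50 was obtained from a four-parameter logistic fit.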
In general terms: ATP-based viability assays read luminescence as a measure of living cells.

In assay [2] the test system is MV-4-11. Briefly: Proliferation inhibition (CellTiter-Glo) in MV-4-11 cells. The note with it: Homo sapiens, MV4-11, 96 h, MV-4-11 AML cells, homozygous FLT3-ITD, IC50 (4 days). The assay is classed as cell-based. An outline of the steps:
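MV-4-11 human AML cells (homozygous FLT3-ITD) grown in RPMI-1640 with 10% heat-inactivated FBS and 1% Pen-Strep were seeded at about 10,000 cells per 200 μL in 96 well plates. Two hours later, compounds were dispensed at eight concentrations in duplicate. Viability was measured by CellTiter-Glo luminescence, and IC50 values came from four-parameter logistic non-linear regression against untreated cells (0.2% DMSO).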

The test system of assay [3] is K-562. Kind of assay: Proliferation inhibition (CellTiter-Glo) in K-562 cells. The assay is classed as cell-based. To be noted: Homo sapiens, K562, 96 h, K-562 CML cells, no FLT3 mutations, IC50 (4 days). The method, boiled down:
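The CML line […] (ATCC: CRL-3343) was cultured in RPMI-1640 with 10% heat-inactivated FBS and 1% Pen-Strep at 37° C. Cells were seeded at about 10,000 per 200 μL in 96-well plates, and test compound was dispensed 2 hours later at eight concentrations in duplicate. Viability was measured as ATP luminescence with CellTiter-Glo. Untreated cells (0.2% DMSO) defined 100% proliferation, and IC50 values came from four-parameter logistic fits.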

The test system of assay [4] is quizartinib-resistant AML. The note with it: Yamaura et al., 2018; cited from earlier work.

As a reminder, the IC50 is the concentration needed to halve the response being measured. Read a low IC50 as greater potency.

With `CCc1nc(C(N)=O)c(Nc2cccc(OCCCNC(=O)[C@H](C)N(C)C(=O)/C=C/CN(C)C)c2)nc1N(C)C(C)C` [Compound 145, (S,E)-3-((3-(3-(2-(4-(dimethylamino)-N-methylbut-2-enamido)propanamido)propoxy)phenyl)amino)-6-ethyl-5-(isopropyl(methyl)amino)pyrazine-2-carboxamide], the figures for the IC50 in assay [1], in assay [2] and in assay [3] were 1 to 10 nM, less than 1 nM and greater than 500 nM, respectively.

Turning to `CCc1nc(C(N)=O)c(Nc2cccc(OCCCNC(=O)[C@H](C)N(C)C(=O)/C=C/CN(C)C)c2)nc1N(C)CC` [Compound 146, (S,E)-3-((3-(3-(2-(4-(dimethylamino)-N-methylbut-2-enamido)propanamido)propoxy)phenyl)amino)-6-ethyl-5-(ethyl(methyl)amino)pyrazine-2-carboxamide], the IC50 in assay [1] was 1 to 10 nM; in assay [2], less than 1 nM; in assay [3], greater than 500 nM.

`CCc1nc(C(N)=O)c(Nc2cccc(OCCCNC(=O)[C@H](C)N(C)C(=O)/C=C/CN3CC(F)(F)C3)c2)nc1NC1CCOCC1` [Compound 147, (S,E)-3-((3-(3-(2-(4-(3,3-difluoroazetidin-1-yl)-N-methylbut-2-enamido)propanamido)propoxy)phenyl)amino)-6-ethyl-5-((tetrahydro-2H-pyran-4-yl)amino)pyrazine-2-carboxamide]: the IC50 is greater than 500 nM in assay [1], 10 to 100 nM in assay [2] and greater than 500 nM in assay [3].

For `CCc1nc(C(N)=O)c(Nc2cccc(OCCCNC(=O)[C@H](C)N(C)C(=O)/C=C/CN(C)C)c2)nc1N1CCC1` [Compound 148, (S,E)-5-(azetidin-1-yl)-3-((3-(3-(2-(4-(dimethylamino)-N-methylbut-2-enamido)propanamido)propoxy)phenyl)amino)-6-ethylpyrazine-2-carboxamide], the IC50 in assay [1] was 1 to 10 nM; in assay [2], 1 to 10 nM; in assay [3], greater than 500 nM.

Turning to `CCc1nc(C(N)=O)c(Nc2cc(F)cc(OCCCNC(=O)[C@H](C)N(C)C(=O)/C=C/CN(C)C)c2)nc1N(C)C` [Compound 149, (S,E)-5-(dimethylamino)-3-((3-(3-(2-(4-(dimethylamino)-N-methylbut-2-enamido)propanamido)propoxy)-5-fluorophenyl)amino)-6-ethylpyrazine-2-carboxamide], the figures for the IC50 in assay [1], in assay [2] and in assay [3] were 1 to 10 nM, less than 1 nM and greater than 500 nM, respectively.

As to `CCc1nc(C(=O)NC)c(Nc2cc(F)cc(OCCCNC(=O)C(C)N(C)C(=O)/C=C/CN(C)C)c2)nc1N(C)C` (stereo not shown) [Compound 151, (E)-5-(dimethylamino)-3-((3-(3-(2-(4-(dimethylamino)-N-methylbut-2-enamido)propanamido)propoxy)-5-fluorophenyl)amino)-6-ethyl-N-methylpyrazine-2-carboxamide], the IC50 in assay [1], in assay [2] and in assay [3] was greater than 500 nM each time.

As to `CCc1nc(C(=O)NC)c(Nc2cccc(CCNC(=O)C(C)N(C)C(=O)/C=C/CN(C)C)c2)nc1NC1CCOCC1` (stereo not shown) [Compound 152, (E)-3-((3-(2-(2-(4-(dimethylamino)-N-methylbut-2-enamido)propanamido)ethyl)phenyl)amino)-6-ethyl-N-methyl-5-((tetrahydro-2H-pyran-4-yl)amino)pyrazine-2-carboxamide], the IC50 in assay [1], in assay [2] and in assay [3] was greater than 500 nM throughout.

As for `CCc1nc(C(N)=O)c(Nc2cc(F)cc(O[C@@H](C)CNC(=O)[C@H](C)N(C)C(=O)/C=C/CN(C)C)c2)nc1N(C)C` [Compound 153, 5-(dimethylamino)-3-((3-(((S)-1-((S)-2-((E)-4-(dimethylamino)-N-methylbut-2-enamido)propanamido)propan-2-yl)oxy)-5-fluorophenyl)amino)-6-ethylpyrazine-2-carboxamide], the IC50 in assay [1] is 10 to 100 nM; in assay [2], 1 to 10 nM; in assay [3], greater than 500 nM.

As to `CCc1nc(C(N)=O)c(Nc2cc(F)cc(O[C@H](C)CNC(=O)C(C)N(C)C(=O)/C=C/CN(C)C)c2)nc1N(C)C` (stereo partly drawn) [Compound 155, 5-(dimethylamino)-3-((3-(((2R)-1-(2-((E)-4-(dimethylamino)-N-methylbut-2-enamido)propanamido)propan-2-yl)oxy)-5-fluorophenyl)amino)-6-ethylpyrazine-2-carboxamide], the IC50 is 10 to 100 nM in assay [1], 10 to 100 nM in assay [2] and greater than 500 nM in assay [3].

As to `CC#CC(=O)N(C)[C@@H](C)C(=O)NCCc1cccc(Nc2nc(C)c(CC)nc2C(N)=O)c1` [Compound 206, 3-[3-[2-[[(2S)-2-[but-2-ynoyl(methyl)amino]propanoyl]amino]ethyl]anilino]-6-ethyl-5-methyl-pyrazine-2-carboxamide], the figures for the IC50 in assay [1], in assay [2] and in assay [3] were greater than 500 nM, 10 to 100 nM and greater than 500 nM, respectively.

On to `CCc1nc(C(N)=O)c(Nc2cccc(CCNC(=O)C3(N(C)C(=O)/C=C/CN(C)C)CCC3)c2)nc1C` [Compound 210, (E)-3-((3-(2-(1-(4-(dimethylamino)-N-methylbut-2-enamido)cyclobutane-1-carboxamido)ethyl)phenyl)amino)-6-ethyl-5-methylpyrazine-2-carboxamide], for which the IC50 in assay [1] is greater than 500 nM; in assay [2], 10 to 100 nM; in assay [3], greater than 500 nM.

With `CC#CC(=O)N(C)[C@@H](C)C(=O)NCCc1cccc(Nc2nc(C)c(C)nc2C(N)=O)c1` [Compound 212, (S)-5,6-dimethyl-3-((3-(2-(2-(N-methylbut-2-ynamido)propanamido)ethyl)phenyl)amino)pyrazine-2-carboxamide], the IC50 in assay [1], in assay [2] and in assay [3] was greater than 500 nM throughout.

With `CCc1nc(C(N)=O)c(Nc2cccc(CCNC(=O)C(C)(C)N(C)C(=O)/C=C/CN(C)C)c2)nc1C` [Compound 229, (E)-3-((3-(2-(2-(4-(dimethylamino)-N-methylbut-2-enamido)-2-methylpropanamido)ethyl)phenyl)amino)-6-ethyl-5-methylpyrazine-2-carboxamide], the IC50 in assay [1], in assay [2] and in assay [3] was greater than 500 nM throughout.

In the case of `CC#CC(=O)N(C)[C@@H](C)C(=O)NCCc1cccc(Nc2nc(C3CC3)c(C)nc2C(N)=O)c1` [Compound 235, (S)-5-cyclopropyl-6-methyl-3-((3-(2-(2-(N-methylbut-2-ynamido)propanamido)ethyl)phenyl)amino)pyrazine-2-carboxamide], the figures for the IC50 in assay [1], in assay [2] and in assay [3] were greater than 500 nM, 10 to 100 nM and greater than 500 nM, respectively.

For `CCCNc1nc(Nc2ccc(C#N)cc2)ncc1C#CCCCNC(=O)[C@H](C)N(C)C(=O)/C=C/CN(C)C` [FF-10101], in assay [4], the “activity against quizartinib-resistant AML” value was “demonstrated activity”.
